Results reported in the NIST ThermoML archive (doi:10.1021/acs.jced.6b00048).
± gives the expanded uncertainty stated by the source.

Experiment: wn = mass fraction of the nth substance listed
Conditions: 100 kPa, Liquid, Vibrating tube method, w1 = 0.5821

mass density (288.15 K): 1702.7 ± 6.9 kg/m3
mass density (298.15 K): 1692.5 ± 6.9 kg/m3
mass density (323.15 K): 1666.6 ± 6.7 kg/m3
SMILES: [Cl-].[Cl-].[Zn+2] [zinc chloride] + O
